These results are taken from patent publication US5703087A, “Phenyl indole compounds” (H. Lundbeck A/S, priority 1993, dated 1997).

Counter-ions that a name gives are not always drawn. Like-named read-outs stand apart in the source and are kept apart here.

The target in one series is T1, dopamine D2 receptors (Rattus norvegicus, UniProt P61169).
T1 construct: dopamine D2 receptors in membranes from rat corpus striatum; from tissue; host or cells: rat corpus striatum membranes
Nature of the series: Inhibition of 3H-Spiperone binding to dopamine D2 receptors in rat corpus striatum in vitro. The settings on record: 0.5 nM 3H-spiperone, rat corpus striatum membranes, read-out: Dopamine D2 binding [^3 H]-spiroperidol. The procedure: Inhibition of ^3 H-Spiperone Binding to Dopamine D2 Receptors in Rat Corpus Striatum in vitro
By this method the inhibition by drugs of the binding of ^3 H-spiperone (0.5 nM) to dopamine D2 receptors in membranes from rat corpus striatum is determined in vitro.

Series [1] is described as follows: Catalepsy in rats (vertical wire mesh). The settings on record: rat, in vivo, 1-6 hours, sc. The procedure:
Evaluation of catalepsy is made according to Arnt (Eur. J. Pharmacol. 90, 47-55 (1983)). Test compound is given s.c. in different doses. The rat (170-240 g) is placed on a vertical wire mesh (mesh diameter 12 mm). The rat is considered cataleptogenic if it remains immobile for more than 15 sec. The maximum number of rats showing catalepsy within the first 6 hours is recorded for each dose group. The results are recorded in fractions and an ED50 value is calculated by means of log-probit analysis.

The next series deals with T2, 5-HT2 receptors (Rattus norvegicus, UniProt P14842).
T2 construct: 5-HT2 receptors in membranes from rat; from tissue; host or cells: rat cortex membranes
T2 sequence (P14842 whole entry): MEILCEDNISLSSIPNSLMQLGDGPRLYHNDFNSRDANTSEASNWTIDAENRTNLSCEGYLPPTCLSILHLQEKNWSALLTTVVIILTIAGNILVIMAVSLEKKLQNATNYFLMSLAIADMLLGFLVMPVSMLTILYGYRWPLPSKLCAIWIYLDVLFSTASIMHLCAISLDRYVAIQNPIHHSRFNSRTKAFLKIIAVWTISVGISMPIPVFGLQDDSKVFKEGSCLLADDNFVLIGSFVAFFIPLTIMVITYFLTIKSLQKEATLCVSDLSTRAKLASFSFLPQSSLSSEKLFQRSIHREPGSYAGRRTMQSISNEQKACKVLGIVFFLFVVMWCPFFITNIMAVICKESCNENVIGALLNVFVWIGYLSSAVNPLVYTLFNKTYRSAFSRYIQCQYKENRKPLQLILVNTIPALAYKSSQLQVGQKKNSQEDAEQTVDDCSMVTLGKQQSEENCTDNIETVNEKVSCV
Nature of the series: Inhibition of 3H-Ketanserin binding to 5-HT2 receptors in membranes from rat cortex in vitro. The conditions noted are these: 0,5 nM 3H-ketanserin. The procedure:
Inhibition of ^3 H-Ketanserin Binding To 5-HT2 Receptors in […] Cortex in vitro
By this method the inhibition by drugs of the binding of ^3 H-Ketanserin (0,5 nM) to 5-HT2 receptors in membranes from rat is determined in vitro. The method is described in Hyttel, Pharmacology & Toxicology 61, 126-129, 1987.

In a further series the test system is 5-HT2. Briefly: Quipazine inhibition (quipazine induced head twitches in rats). Format: in vivo. The settings on record: Rattus norvegicus. The source says:
Quipazine is a 5-HT2 agonist, which induces head twitches in rats.

The conditions of series [2]: in vivo; cited from earlier work.
Where [3] appears, read: po, 24 h, read-out: Quipazine inhibition 24 hours (po) ED50.
Setting [4] is: sc, 2 h, read-out: Quipazine inhibition 2 hours (sc) ED50.
[5] abbreviates: rats, 2 hours, sc, read-out: Quipazine inhibition 2 hours (sc) ED50.
The mark [6] stands for this setting: rats, 24 hours, po, read-out: Quipazine inhibition 24 hours (po) ED50.

T1 sequence (P61169 whole entry): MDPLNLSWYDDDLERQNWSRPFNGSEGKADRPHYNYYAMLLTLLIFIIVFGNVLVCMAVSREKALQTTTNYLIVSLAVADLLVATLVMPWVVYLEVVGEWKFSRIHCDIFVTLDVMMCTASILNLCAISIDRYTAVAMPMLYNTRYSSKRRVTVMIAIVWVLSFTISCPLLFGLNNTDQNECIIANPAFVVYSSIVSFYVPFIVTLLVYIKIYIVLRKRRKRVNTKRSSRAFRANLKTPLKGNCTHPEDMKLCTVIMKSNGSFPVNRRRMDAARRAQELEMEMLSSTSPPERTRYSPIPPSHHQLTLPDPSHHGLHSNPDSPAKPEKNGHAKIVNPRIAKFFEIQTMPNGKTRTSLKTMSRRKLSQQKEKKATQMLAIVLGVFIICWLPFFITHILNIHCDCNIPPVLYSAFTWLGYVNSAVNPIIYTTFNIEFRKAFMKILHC

For orientation: ED50 means the dose at which the effect has come halfway, by size or by number of responders. Take `O=C1NC(O)C(=O)N1CCN1CCC(c2cn(-c3ccc(F)cc3)c3ccc(Cl)cc23)CC1` (centres unmarked) [Compound 7a, 1-[2-[4-[5-Chloro-1-(4-fluorophenyl)-1H-indol-3-yl]piperidin-1-yl]ethyl]-4-hydroxyimidazolidin-2,5-dione]: the figures for the IC50 at dopamine D2 receptors and on 5-HT2 receptors were 18 nM and 6.6 nM, respectively. Further, the 50% effective dose (ED50) at 6 h in series [1] was greater than 42 µmol/kg.
For `O=C1NCC2(CCCC2)N1CCN1CCC(c2cn(-c3ccc(F)cc3)c3ccc(Cl)cc23)CC1` [Compound 13, 1-[2-[4-[5-Chloro-1-(4-fluorophenyl)-1H-indol-3-yl]piperidin-1-yl]ethyl]-1,3-diazaspiro[4.4]nonan-2-one], the IC50 at dopamine D2 receptors turned out to be 30 nM; on 5-HT2 receptors, 4.5 nM. The ED50 at 6 h in series [1] was greater than 40 µmol/kg. The ED50 in the series on 5-HT2 (setting [3]) came out at 0.45 µmol/kg; in the series with 5-HT2 (setting [4]) it was 0.088 µmol/kg.
With `COC1CNC(=O)N1CCN1CCC(c2cn(-c3ccc(F)cc3)c3ccc(Cl)cc23)CC1` (centres unmarked) [Compound 3, 1-[2-[4-[5-chloro-1-(4-fluorophenyl)-1H-indol-3-yl]piperidin-1-yl]ethyl]-5-methoxyimidazolidin-2-one, fumarate], the IC50 was determined as 13 nM at dopamine D2 receptors and 1.5 nM at 5-HT2 receptors. This compound came in with an ED50 at 6 h in series [1] of 17 µmol/kg.
With `O=C1NC(=O)N(CCN2CCC(c3cn(-c4ccc(F)cc4)c4ccc(Cl)cc34)CC2)C1O` (centres unmarked) [Compound 7b, 1-[2-[4-[5-chloro-1-(4-fluorophenyl)-1H-indol-3-yl]piperidin-1-yl]ethyl]-5-hydroxyimidazolidin-2,4-dione], the IC50 at dopamine D2 receptors came to 23 nM; at 5-HT2 receptors, 9.8 nM. For the same compound, in series [1], the ED50 at 6 h is greater than 21 µmol/kg.
The compound `[2H]C1([2H])NC(=O)N(CCN2CCC(c3cn(-c4ccc(F)cc4)c4ccc(Cl)cc34)CC2)C1([2H])[2H]` [Compound 4, 1-[2-[4-[5-Chloro-1-(4-fluorophenyl)-1H-indol-3-yl]piperidin-1-yl]ethyl]-4,4,5,5-tetradeuteroimidazolidin-2-one] registered a median effective dose (ED50) at 6 h in series [1] greater than 45 µmol/kg. The 50% effective dose (ED50) is 0.07 µmol/kg in the series with 5-HT2 (setting [5]) and less than 0.0056 µmol/kg with 5-HT2 (setting [6]).
Regarding `CC1(C)C(=O)NC(=O)N1CCN1CCC(c2cn(-c3ccc(F)cc3)c3ccc(Cl)cc23)CC1` [Compound 10, 1-[2-[4-[5-Chloro-1-(4-fluorophenyl)-1H-indol-3-yl]piperidin-1-yl]ethyl]-5,5-dimethylimidazolidin-2,4-dione], the IC50 on dopamine D2 receptors is 20 nM; on 5-HT2 receptors it was 12 nM. Also, the ED50 at 6 h in series [1] is greater than 30 µmol/kg. In the series with 5-HT2 (setting [4]), the 50% effective dose (ED50) stood at 0.33 µmol/kg.
For `O=C1NC(O)C(O)N1CCN1CCC(c2cn(-c3ccc(F)cc3)c3ccc(Cl)cc23)CC1` (centres unmarked) [Compound 11, 1-[2-[4-[5-chloro-1-(4-fluorophenyl)-1H-indol-3-yl]piperidin-1-yl]ethyl]-4,5-dihydroxyimidazolidin-2-one], the IC50 at dopamine D2 receptors turned out to be 18 nM; on 5-HT2 receptors, 2.5 nM.
The compound `[2H]C1([2H])CNC(=O)N1CCN1CCC(c2cn(-c3ccc(F)cc3)c3ccc(Cl)cc23)CC1` [Compound 6, 1-[2-[4-[5-Chloro-1-(4-fluorophenyl)-1H-indol-3-yl]piperidin-1-yl]ethyl]-5,5-dideuteroimidazolidin-2-one] came in with an ED50 at 6 h in series [1] of 30 µmol/kg. The 50% effective dose (ED50) amounted to 0.02 µmol/kg in the series on 5-HT2 (setting [5]) and 0.012 µmol/kg in the series on 5-HT2 (setting [6]).
`O=C1NCCN1CCN1CCC(c2cn(-c3ccc(F)cc3)c3ccc(Cl)cc23)CC1` [sertindole, 1-[2-[4-[5-chloro-1-(4-fluorophenyl)-1H-indol-3-yl]piperidin-1-yl]ethyl]-2-imidazolidinone, reference compound]: in series [1], the 50% effective dose (ED50) at 6 h is greater than 91 µmol/kg. For the same compound, the anxiolytic activity entry in series [2] is reported as “found to show anxiolytic activity”. The ED50 worked out at 0.035 µmol/kg with 5-HT2 (setting [5]) and 0.039 µmol/kg with 5-HT2 (setting [6]).
Take `[2H]C1([2H])CN(CCN2CCC(c3cn(-c4ccc(F)cc4)c4ccc(Cl)cc34)CC2)C(=O)N1` [Compound 5, 1-[2-[4-[5-Chloro-1-(4-fluorophenyl)-1H-indol-3-yl]piperidin-1-yl]ethyl]-4,4-dideuteroimidazolidin-2-one]: the 50% effective dose (ED50) at 6 h in series [1] is greater than 45 µmol/kg. In addition, the 50% effective dose (ED50) in the series with 5-HT2 (setting [5]) turned out to be 0.055 µmol/kg; in the series with 5-HT2 (setting [6]), 0.0097 µmol/kg.
In the case of `O=C1NC2(CCCC2)CN1CCN1CCC(c2cn(-c3ccc(F)cc3)c3ccc(Cl)cc23)CC1` [Compound 12, 3-[2-[4-[5-Chloro-1-(4-fluorophenyl)-1H-indol-3-yl]piperidin-1-yl]ethyl]-1,3-diazaspiro[4.4]nonan-2-one], the IC50 was found to be 19 nM on dopamine D2 receptors and 4.7 nM on 5-HT2 receptors. The 50% effective dose (ED50) at 6 h in series [1] is greater than 40 µmol/kg. The ED50 in the series on 5-HT2 (setting [3]) is 0.037 µmol/kg; with 5-HT2 (setting [4]) it was 0.076 µmol/kg.
On the same counts, the results for `O=C1NCC(O)N1CCN1CCC(c2cn(-c3ccc(F)cc3)c3ccc(Cl)cc23)CC1` (centres unmarked) [Compound 1, 1-[2-[4-[5-chloro-1-(4-fluorophenyl)-1H-indol-3-yl]piperidin-1-yl]ethyl]-5-hydroxyimidazolidin-2-one] are 5.5 nM, 1.4 nM, 39 µmol/kg, 0.085 µmol/kg and 0.099 µmol/kg.
The corresponding values for `CC1(C)CN(CCN2CCC(c3cn(-c4ccc(F)cc4)c4ccc(Cl)cc34)CC2)C(=O)N1` [Compound 8, 1-[2-[4-[5-Chloro-1-(4-fluorophenyl)-1H-indol-3-yl]piperidin-1-yl]ethyl]-4,4-dimethylimidazolidin-2-one] are 18 nM, 2 nM, greater than 43 µmol/kg, 0.013 µmol/kg and 0.035 µmol/kg.
The corresponding values for `CC1(C)CNC(=O)N1CCN1CCC(c2cn(-c3ccc(F)cc3)c3ccc(Cl)cc23)CC1` [Compound 9, 1-[2-[4-[5-Chloro-1-(4-fluorophenyl)-1H-indol-3-yl]piperidin-1-yl]ethyl]-5,5-dimethylimidazolidin-2-one] are 14 nM, 1.7 nM, greater than 43 µmol/kg, 0.078 µmol/kg and 0.13 µmol/kg.
